Legend:
[1] = tested on: chondrocytes in the cartilage chamber; experiment: RT-PCR marker expression, chondrocyte response in cartilage (top) chamber of the bioreactor; type: cell-based; details: weeks 3 and 4 (1 nM estradiol + 10 nM progesterone; 0.1 nM estradiol + 50 nM progesterone)
Experimental: FIGS. 17-20 are graphs that show differential expression of markers (as determined by RT-PCR) for a control medium that contained no estrogen or progesterone (first bar), and then different concentrations of hormones supplied to one or the other of the bioreactor chambers during week 1 (w1: 0.1 nM estradiol), week 2 (w2: 1 nM estradiol), week 3 (w3: 1 nM estradiol and 10 nM progesterone), and week 4 (w4: 0.1 nM estradiol and 50 nM progesterone). […] FIGS. 17-18 show differential expression of markers (as determined by RT-PCR) for a control medium that contained no estrogen or progesterone (first bar), and then different concentrations of hormones supplied to the chambers during week 1 (w1: 0.1 nM estradiol), week 2 (w2: 1 nM estradiol), week 3 (w3: 1 nM estradiol and 10 nM progesterone), and week 4 (w4: 0.1 nM estradiol and 50 nM progesterone).

[2] = not told
Description: The porosity and permeability of the latter have been estimated via Boyle's pycnometer and scanning electron microscopy (SEM) analysis.

| Permeability [2] [m^2] | Compound | expression of cartilage anabolic markers, progesterone progressively added [1] |
| --- | --- | --- |
| – | CC(=O)[C@H]1CC[C@H]2[C@@H]3CCC4=CC(=O)CC[C@]4(C)[C@H]3CC[C@]12C [progesterone] | downregulation is still present |
| 3.234e−09 | poly-L-lactate [PLLA scaffold] | – |

— patent US11154858B2, “Microfluidic tissue development systems” (University of Pittsburgh—Of the Commonwealth System of …, priority 2015, dated 2021)
